Assay results from PubChem BioAssay AID248 (DTP/NCI, 2004).
Inconclusive results and toxic doses are left out. Rule as the data show it: active = T/C of 150% or more; inactive = T/C below 125%.

Test system: L1210 leukemia ip in BDF1 mice, survival T/C
Assay: NCI In Vivo Anticancer Drug Screen. Data for tumor model L1210 Leukemia (intraperitoneal) in B6D2F1 (BDF1) mice
Settings: endpoint: mean survival time, higher = longer survival
In short: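 Transplantable tumor model; survival measured in treated vs vehicle control mice. Value = treated/control.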

[1] = dose: 100.0 mg/kg/injection, schedule: Q01DX001 (ip), vehicle: saline
[2] = dose: 200.0 mg/kg/injection, schedule: Q01DX001 (ip), vehicle: saline
[3] = dose: 400.0 mg/kg/injection, schedule: Q01DX001 (ip), vehicle: saline
[4] = dose: 100.0 mg/kg/injection, schedule: Q01DX009 (ip), vehicle: Klucel (hydroxypropylcellulose) (HPC)
[5] = dose: 200.0 mg/kg/injection, schedule: Q01DX009 (ip), vehicle: Klucel (hydroxypropylcellulose) (HPC)
[6] = dose: 100.0 mg/kg/injection, schedule: Q04DX003 (ip), vehicle: saline with Tween-80
[7] = dose: 200.0 mg/kg/injection, schedule: Q04DX003 (ip), vehicle: saline with Tween-80
[8] = dose: 400.0 mg/kg/injection, schedule: Q04DX003 (ip), vehicle: saline with Tween-80
[9] = dose: 100.0 mg/kg/injection, schedule: Q04DX002 (ip), vehicle: Klucel (hydroxypropylcellulose) (HPC)
[10] = dose: 200.0 mg/kg/injection, schedule: Q04DX002 (ip), vehicle: Klucel (hydroxypropylcellulose) (HPC)
[11] = dose: 400.0 mg/kg/injection, schedule: Q04DX002 (ip), vehicle: Klucel (hydroxypropylcellulose) (HPC)

Measured: T/C

COc1cc2c(O)cc(C(=O)OC(C)(C)C)c(-c3cc(OC)c(OC)c(OC)c3)c2cc1OC
inactive: [1] 97 % of control | [2] 95 % of control | [3] 89 % of control

O=C(NCCBr)c1ccc(N=Nc2ccccc2)cc1
inactive: dose: 20.0 mg/kg/injection, schedule: Q01DX009 (ip), vehicle: Klucel (hydroxypropylcellulose) (HPC) 95 % of control | dose: 20.0 mg/kg/injection, schedule: Q04DX003 (ip), vehicle: Klucel (hydroxypropylcellulose) (HPC) 103 % of control | dose: 40.0 mg/kg/injection, schedule: Q01DX009 (ip), vehicle: Klucel (hydroxypropylcellulose) (HPC) 95 % of control | dose: 40.0 mg/kg/injection, schedule: Q04DX003 (ip), vehicle: Klucel (hydroxypropylcellulose) (HPC) 103 % of control | dose: 80.0 mg/kg/injection, schedule: Q01DX009 (ip), vehicle: Klucel (hydroxypropylcellulose) (HPC) 91 % of control | dose: 80.0 mg/kg/injection, schedule: Q04DX003 (ip), vehicle: Klucel (hydroxypropylcellulose) (HPC) 105 % of control

C[C@]12CCC(=O)C=C1CC[C@@H]1[C@@H]2[C@@H](O)C[C@@]2(C)[C@H]1CC[C@]2(O)C(=O)COC(=O)CCC(=O)O
inactive: dose: 50.0 mg/kg/injection, schedule: Q01DX001 (sc), vehicle: steriod suspending solution 107 % of control | dose: 100.0 mg/kg/injection, schedule: Q01DX001 (sc), vehicle: steriod suspending solution 104 % of control | dose: 100.0 mg/kg/injection, schedule: Q01DX009 (ip), vehicle: steriod suspending solution 108 % of control | dose: 100.0 mg/kg/injection, schedule: Q04DX003 (sc), vehicle: steriod suspending solution 100 % of control | dose: 200.0 mg/kg/injection, schedule: Q01DX001 (sc), vehicle: steriod suspending solution 105 % of control | dose: 200.0 mg/kg/injection, schedule: Q01DX009 (ip), vehicle: steriod suspending solution 101 % of control | dose: 200.0 mg/kg/injection, schedule: Q04DX003 (sc), vehicle: steriod suspending solution 96 % of control | dose: 400.0 mg/kg/injection, schedule: Q01DX001 (sc), vehicle: steriod suspending solution 94 % of control | dose: 400.0 mg/kg/injection, schedule: Q01DX009 (ip), vehicle: steriod suspending solution 103 % of control | dose: 400.0 mg/kg/injection, schedule: Q04DX003 (sc), vehicle: steriod suspending solution 102 % of control

CC(=O)NNS(=O)(=O)c1ccccc1
inactive: dose: 100.0 mg/kg/injection, schedule: Q01DX001 (ip), vehicle: Klucel (hydroxypropylcellulose) (HPC) 102 % of control | [4] 106 % of control | dose: 200.0 mg/kg/injection, schedule: Q01DX001 (ip), vehicle: Klucel (hydroxypropylcellulose) (HPC) 100 % of control | [5] 95 % of control | dose: 400.0 mg/kg/injection, schedule: Q01DX001 (ip), vehicle: Klucel (hydroxypropylcellulose) (HPC) 105 % of control

O=C(NCCCl)NC1c2ccccc2CCc2ccccc21
inactive: [4] 94 % of control | dose: 100.0 mg/kg/injection, schedule: Q04DX003 (ip), vehicle: Klucel (hydroxypropylcellulose) (HPC) 106 % of control | [5] 88 % of control | dose: 200.0 mg/kg/injection, schedule: Q04DX003 (ip), vehicle: Klucel (hydroxypropylcellulose) (HPC) 105 % of control | dose: 400.0 mg/kg/injection, schedule: Q01DX009 (ip), vehicle: Klucel (hydroxypropylcellulose) (HPC) 98 % of control | dose: 400.0 mg/kg/injection, schedule: Q04DX003 (ip), vehicle: Klucel (hydroxypropylcellulose) (HPC) 90 % of control

CCSCc1cnc(N)nc1-c1ccccc1
inactive: [6] 97 % of control | [7] 94 % of control | [8] 86 % of control

CC1NCCCNCCCNC(C)c2cccc1n2 (centres undefined)
inactive: dose: 12.5 mg/kg/injection, schedule: Q04DX002 (ip), vehicle: saline 92 % of control | dose: 25.0 mg/kg/injection, schedule: Q04DX002 (ip), vehicle: saline 89 % of control

COc1ccc(NC(=O)Oc2ccc3ccccc3c2)c(OC)c1
inactive: [9] 97 % of control | [10] 111 % of control | [11] 104 % of control

CC(C)c1cc(C(C)C)nc(NNc2nc(C(C)C)cc(C(C)C)n2)n1
inactive: dose: 100.0 mg/kg/injection, schedule: Q01DX009 (ip), vehicle: saline with Tween-80 102 % of control | dose: 200.0 mg/kg/injection, schedule: Q01DX009 (ip), vehicle: saline with Tween-80 100 % of control | dose: 400.0 mg/kg/injection, schedule: Q01DX009 (ip), vehicle: saline with Tween-80 98 % of control

O=C(CCCC(=O)N/N=C/c1cc(O)ccc1O)N/N=C\c1cc(O)ccc1O
inactive: dose: 50.0 mg/kg/injection, schedule: Q01DX001 (ip), vehicle: saline 102 % of control | [1] 96 % of control | [2] 90 % of control | [3] 98 % of control

N=C(N)/[N+]([O-])=N/O
inactive: dose: 8.0 mg/kg/injection, schedule: Q01DX001 (ip), vehicle: saline + alcohol 97 % of control | dose: 12.0 mg/kg/injection, schedule: Q01DX001 (ip), vehicle: saline + alcohol 100 % of control | dose: 18.0 mg/kg/injection, schedule: Q01DX001 (ip), vehicle: saline + alcohol 111 % of control | dose: 26.0 mg/kg/injection, schedule: Q01DX001 (ip), vehicle: saline + alcohol 98 % of control | dose: 40.0 mg/kg/injection, schedule: Q01DX001 (ip), vehicle: saline + alcohol 103 % of control | dose: 60.0 mg/kg/injection, schedule: Q01DX001 (ip), vehicle: saline + alcohol 95 % of control | dose: 90.0 mg/kg/injection, schedule: Q01DX001 (ip), vehicle: saline + alcohol 101 % of control | dose: 135.0 mg/kg/injection, schedule: Q01DX001 (ip), vehicle: saline + alcohol 100 % of control | dose: 200.0 mg/kg/injection, schedule: Q01DX001 (ip), vehicle: saline + alcohol 108 % of control

CCOC(=O)C(CC1OCCO1)C1=NC(C)(C)CC(C)O1 (centres undefined)
inactive: dose: 100.0 mg/kg/injection, schedule: Q01DX009 (ip), vehicle: saline 96 % of control | dose: 100.0 mg/kg/injection, schedule: Q04DX003 (ip), vehicle: saline 106 % of control | dose: 200.0 mg/kg/injection, schedule: Q01DX009 (ip), vehicle: saline 100 % of control | dose: 200.0 mg/kg/injection, schedule: Q04DX003 (ip), vehicle: saline 92 % of control | dose: 400.0 mg/kg/injection, schedule: Q01DX009 (ip), vehicle: saline 96 % of control | dose: 400.0 mg/kg/injection, schedule: Q04DX003 (ip), vehicle: saline 92 % of control

CC(=O)Nc1ccc2c(ccc3ccc4ccccc4c32)c1
inactive: [9] 102 % of control | [10] 105 % of control | [11] 105 % of control

O=C(Nc1cccc(S(=O)(=O)F)c1)c1ccc(COc2ccc([N+](=O)[O-])cc2Cl)cc1
inactive: dose: 100.0 mg/kg/injection, schedule: Q01DX009 (ip), vehicle: saline sonified 100 % of control | [6] 97 % of control | dose: 200.0 mg/kg/injection, schedule: Q01DX009 (ip), vehicle: saline sonified 100 % of control | [7] 100 % of control | dose: 400.0 mg/kg/injection, schedule: Q01DX009 (ip), vehicle: saline sonified 94 % of control | [8] 94 % of control

Cc1ccc(NC(=O)Oc2ccc(Br)cc2)c([N+](=O)[O-])c1
inactive: [9] 99 % of control | [10] 115 % of control | [11] 92 % of control

C[n+]1c(/C=C/c2ccnc3c(O)cccc23)sc2ccccc21
inactive: dose: 15.0 mg/kg/injection, schedule: Q01DX001 (ip), vehicle: saline 105 % of control | dose: 30.0 mg/kg/injection, schedule: Q01DX001 (ip), vehicle: saline 97 % of control
